Results published in US20230219957A1, “SMALL MOLECULE CB002-ANALOGES RESTORE THE P53 PATHWAY AND TARGET S-PHASE CHECKPOINT” (Brown University, priority 2020, published 2023).

What was measured:
[1] = tested on: human SW480 colorectal cancer cells; assay: Tumor xenograft efficacy in NSG mice; format: in vivo; conditions: 50 mg/kg oral gavage three times per week, 5-weeks of treatment
Method: (§1) Drug efficacy using in vivo tumor xenografts. In vivo drug efficacy studies were performed on ten NSG female randomized mice per cohort. The mice had tested negative for any pathogen. Tumor inoculation was induced by subcutaneous injection in the left and right dorsal flank, each with a 150 μL suspension of 1-5×10^6 human colon cancer cells in phosphate-buffered saline with Matrigel (1:1). After tumor size reached 100 mm^3, mice were treated 3×/week with dimethyl sulfoxide vehicle or CB002-analog #4 via oral gavage (22-gauge needle) in a solution of 10% dimethyl sulfoxide, 20% Kolliphor® EL (Sigma cat. no. C5135), and 70% phosphate-buffered saline. Mouse weight and tumor measurements were recorded one-two times per week. Tumor volume was calculated as V=0.5*L*W^2, where L is length and W is the width of the tumor. At the end of the assay, mice were euthanized by CO2. All in vivo procedures were performed according to an approved Institutional Animal Care and Use Committee (IACUC) protocol.

SW480 tumor cells = assay: Apoptosis markers (cleaved PARP immunoblot, Cyt-C immunofluorescence); format: cell-based, human
Method: Knockdown expression of p73, DR5, ATG5, or FADD using siRNA. A total of 1×10^5 cells/well were plated per well in a 12-well plate in medium with 10% FBS without antibiotic. Forward transfection of p73 siRNA (s14319, Ambion®, Ambion Inc., Austin, Tex., USA), DR5 (sc-40237, Santa Cruz Biotechnology), atg5 (137766, Ambion®, Ambion Inc., Austin, Tex., USA), or FADD (S16706, Ambion®, Ambion Inc., Austin, Tex., USA) was performed using the Lipofectamine® RNAiMAX Transfection Reagent (Life Technologies) and incubated for forty-eight hours before treatment, e.g., before drug treatments.
Immunoblotting (additional method). After treatment, floating cells were collected, and adherent cells were trypsinized, washed with phosphate-buffered saline, and lysed with RIPA buffer (Sigma-Aldrich, St. Louis, Mo., USA) for thirty minutes to one hour at 4° C. Protein lysates were pelleted. The supernatant was collected. Total protein per sample was determined using a Pierce™ BCA Protein Assay Kit (Thermo Fisher Scientific, Waltham, Mass., USA). Proteins were denatured using 1× NuPAGE® LDS sample buffer (Thermo Fisher Scientific, Waltham, Mass., USA) and reduced with 2-mercaptoethanol (Sigma-Aldrich, St. Louis, Mo., USA). Protein lysates were boiled for fifteen min at 95° C. After protein normalization, samples were loaded into NuPAGE™ Novex™ 4-12% Bis-Tris Protein Gels (Thermo Fisher Scientific, Waltham, Mass., USA). Gel electrophoresis was performed with NuPAGE™ MES SDS Running Buffer. […] Signal was detected using a chemiluminescent detection kit, followed by autoradiography. […]
Immunohistochemistry. […] Organoid viability imaging was determined by CellTrace™ Calcein Green (#C34852, Thermo Fisher Scientific, Waltham, Mass., USA), Ethidium Homodimer-1 (#E1169, Thermo Fisher Scientific, Waltham, Mass., USA), Ki67 incubated at 37° C. for one hour then washed with phosphate-buffered saline and imaged. […]

SW480 cells = assay: Microarray transcriptomic analysis with ingenuity pathway analysis; format: cell-based, human; conditions: twelve hours treatment
Method: Microarray analysis. SW480 cells were seeded at a density of 1×10^6 in 10 cm dishes. After being adhered, the cells were treated with dimethyl sulfoxide vehicle control or CB002-analog #4. Floating cells were collected, and adherent cells were trypsinized at twelve hours of treatment. The cells were pelleted. According to manufacturer instructions, RNA was isolated from the cells using a Quick-RNA™ MiniPrep (#R1055, Zymo Research Irvine, Calif., USA). RNA quality was tested using an Agilent Bioanalyzer RNA kit. When the RNA quality was enough, RNA was amplified and labeled using the low RNA input linear amplification kit commercially available from Agilent Technologies, Santa Clara, Calif., USA. Labeled cDNA was hybridized onto Affymetrix Human Gene 2.0-ST array. Significant changes in gene expression were determined at 1.5-fold either up or down in dimethyl sulfoxide vehicle control versus CB002-analog #4.

[2] = set-up: species or system mice; conditions: in vivo, po, 50 mg/kg
Method: as §1

Cn1c(=O)c2[nH]c(Nc3cccc(C(F)(F)F)c3)nc2n(C)c1=O [CB002-analog #4]
tumor volume [1]: lower tumor volume than vehicle control
cleaved-PARP (SW480 tumor cells; SW480): increases cleaved-PARP
cytochrome C release from the mitochondria to the cytosol (SW480 tumor cells; SW480, forty-eight hours): cytochrome C release from the mitochondria to the cytosol
PARP cleavage under p73 knockdown (SW480 tumor cells; SW480, p73 siRNA): PARP cleavage occurred despite effective p73 knockdown
p53 target genes Noxa, Puma, and DR5 expression (SW480 cells): upregulated
p53 upstream regulator activation z-score (IPA) (SW480 cells): 3.3
tolerability by mouse body weights [2]: well-tolerated
